# Measured values reported in ChEMBL document CHEMBL1201862, “PubChem BioAssay data set” (2004).
# Calls of active or inactive are those of the source.
# How the values were obtained:
# [1] = target: T1, Adenosylmethionine-8-amino-7-oxononanoate aminotransferase (Mycobacterium tuberculosis, UniProt P9WQ81); assay: Mycobacterium tuberculosis BioA enzyme inhibitor Measured in Biochemical System Using Plate Reader - 2163-02_Inhibitor_Dose_CherryPick_Activity.; format: functional, Mycobacterium tuberculosis UT205
# T1 sequence (P9WQ81 whole entry): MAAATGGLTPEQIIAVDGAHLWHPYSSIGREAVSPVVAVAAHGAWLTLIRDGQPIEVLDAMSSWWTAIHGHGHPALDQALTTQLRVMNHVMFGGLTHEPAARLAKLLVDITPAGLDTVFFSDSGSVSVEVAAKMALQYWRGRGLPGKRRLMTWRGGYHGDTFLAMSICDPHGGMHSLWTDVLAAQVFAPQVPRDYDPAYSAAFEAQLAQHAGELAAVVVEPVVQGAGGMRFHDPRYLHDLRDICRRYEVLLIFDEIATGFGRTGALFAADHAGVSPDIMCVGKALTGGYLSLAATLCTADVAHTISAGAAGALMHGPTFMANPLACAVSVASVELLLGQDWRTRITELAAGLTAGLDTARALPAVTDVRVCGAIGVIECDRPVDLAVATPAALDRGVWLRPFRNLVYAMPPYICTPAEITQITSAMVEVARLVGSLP
# [2] = reduction of Shn3 3'UTR-driven luciferase in osteoblasts – cell-based, Clone20 osteoblasts, firefly luciferase, cherry-picked, dose response (AID 624132); format: functional;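 also: firefly luciferase luminescence from reporter carrying the Shn3 3'UTR in osteoblasts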
# [3] = non-specific 3'UTR reporter inhibition in Clone20-Shn3RL – cell-based, Renilla luciferase, cherry-picked, counter-screen for Shn3 inhibitor project, dose response (AID 624133); format: functional
# Protein Wnt-3a = Protein Wnt-3a (Mus musculus, UniProt P27467); assay: antagonism of Wnt3a pathway luciferase reporter – Wnt-LIGHT cells, luminescence, selectivity assay for Gli-SUFU antagonist project, dose response (AID 651570); format: functional; details: read-out: IC50_Mean;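 also: Wnt-LIGHT reporter cells stimulated with conditioned medium from Wnt3a-producing cells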
# Protein Wnt-3a, sequence (P27467 whole entry): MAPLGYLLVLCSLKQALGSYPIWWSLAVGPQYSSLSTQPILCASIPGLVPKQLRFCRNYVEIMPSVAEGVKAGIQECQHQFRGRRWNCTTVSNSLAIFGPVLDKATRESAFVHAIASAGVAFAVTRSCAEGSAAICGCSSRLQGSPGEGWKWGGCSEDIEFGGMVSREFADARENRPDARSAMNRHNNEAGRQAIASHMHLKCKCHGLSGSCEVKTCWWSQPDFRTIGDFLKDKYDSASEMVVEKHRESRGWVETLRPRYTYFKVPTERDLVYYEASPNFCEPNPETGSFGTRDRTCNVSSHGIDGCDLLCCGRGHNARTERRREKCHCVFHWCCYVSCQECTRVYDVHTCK
# Cytochrome P450 2C19 = Cytochrome P450 2C19 (Homo sapiens, UniProt P33261); assay: Cytochrome panel assay with activity outcomes. Panel member name: p450-cyp2c19 Compounds with AC50 equal or less than 10 uM are considered active; format: functional; details: read-out: AC50
# Cytochrome P450 2C19, sequence (P33261 whole entry): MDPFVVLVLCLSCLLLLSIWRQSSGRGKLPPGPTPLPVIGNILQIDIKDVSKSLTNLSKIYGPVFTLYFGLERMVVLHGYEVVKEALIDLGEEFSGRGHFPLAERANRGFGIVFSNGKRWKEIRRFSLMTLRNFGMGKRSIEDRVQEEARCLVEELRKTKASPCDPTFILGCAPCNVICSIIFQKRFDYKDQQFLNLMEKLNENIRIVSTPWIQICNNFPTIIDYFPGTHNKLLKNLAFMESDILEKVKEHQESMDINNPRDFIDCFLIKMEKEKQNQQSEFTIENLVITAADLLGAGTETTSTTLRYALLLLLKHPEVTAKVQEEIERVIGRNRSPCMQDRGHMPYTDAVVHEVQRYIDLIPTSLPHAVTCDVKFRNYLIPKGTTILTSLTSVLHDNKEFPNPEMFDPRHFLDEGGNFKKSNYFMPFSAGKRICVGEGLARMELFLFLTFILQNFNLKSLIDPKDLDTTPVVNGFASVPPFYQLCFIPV
# [4] = target: 26S proteasome non-ATPase regulatory subunit 14 (Homo sapiens, UniProt O00487); assay: inhibition of proteasome subunit RPN11 – biochemical, fluorescence polarization, uHTS hits, confirmation (AID 602368); format: functional
# 26S proteasome non-ATPase regulatory subunit 14, sequence (O00487 whole entry): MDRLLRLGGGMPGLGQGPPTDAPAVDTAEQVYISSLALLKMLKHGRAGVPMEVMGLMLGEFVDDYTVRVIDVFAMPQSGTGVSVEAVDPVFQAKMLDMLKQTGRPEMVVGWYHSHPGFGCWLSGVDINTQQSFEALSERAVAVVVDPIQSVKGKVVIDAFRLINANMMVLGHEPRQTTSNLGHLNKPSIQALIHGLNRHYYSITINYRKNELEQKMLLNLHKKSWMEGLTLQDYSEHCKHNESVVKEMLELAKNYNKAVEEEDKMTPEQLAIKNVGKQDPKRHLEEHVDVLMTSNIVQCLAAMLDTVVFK
# [5] = target: 72 kDa type IV collagenase (Homo sapiens, UniProt P08253); assay: Dose Response validation of uHTS RPN11 inhibitor hits using a MMP-2 Fluorescence assay.; format: functional
# 72 kDa type IV collagenase, sequence (P08253 whole entry): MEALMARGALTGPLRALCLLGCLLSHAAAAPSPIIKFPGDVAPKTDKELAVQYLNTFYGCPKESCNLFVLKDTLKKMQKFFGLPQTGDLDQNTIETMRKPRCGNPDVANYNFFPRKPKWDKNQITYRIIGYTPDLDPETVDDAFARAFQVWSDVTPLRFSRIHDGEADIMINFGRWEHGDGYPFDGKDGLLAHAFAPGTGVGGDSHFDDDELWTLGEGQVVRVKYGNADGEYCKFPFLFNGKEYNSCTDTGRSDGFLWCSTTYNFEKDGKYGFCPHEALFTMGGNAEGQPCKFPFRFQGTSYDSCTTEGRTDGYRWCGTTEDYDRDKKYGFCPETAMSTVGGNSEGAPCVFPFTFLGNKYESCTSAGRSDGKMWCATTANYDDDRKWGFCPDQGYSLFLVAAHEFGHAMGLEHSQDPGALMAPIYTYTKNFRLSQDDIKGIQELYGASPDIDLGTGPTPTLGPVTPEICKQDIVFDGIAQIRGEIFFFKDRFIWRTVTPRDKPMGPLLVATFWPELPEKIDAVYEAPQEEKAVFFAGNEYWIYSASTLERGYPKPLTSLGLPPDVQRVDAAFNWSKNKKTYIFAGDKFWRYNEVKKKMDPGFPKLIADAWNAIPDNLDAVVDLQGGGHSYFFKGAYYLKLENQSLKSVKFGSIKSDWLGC
# Prothrombin = Prothrombin (Bos taurus, UniProt P00735); assay: thrombin protease inhibitors – biochemical, fluorescence polarization, uHTS hits, dose response (AID 602369); format: functional
# Cytochrome P450 3A4 = Cytochrome P450 3A4 (Homo sapiens, UniProt P08684);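 also: CYP3A4 tested as one member of a cytochrome P450 panel screen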
# Cytochrome P450 3A4, sequence (P08684 whole entry): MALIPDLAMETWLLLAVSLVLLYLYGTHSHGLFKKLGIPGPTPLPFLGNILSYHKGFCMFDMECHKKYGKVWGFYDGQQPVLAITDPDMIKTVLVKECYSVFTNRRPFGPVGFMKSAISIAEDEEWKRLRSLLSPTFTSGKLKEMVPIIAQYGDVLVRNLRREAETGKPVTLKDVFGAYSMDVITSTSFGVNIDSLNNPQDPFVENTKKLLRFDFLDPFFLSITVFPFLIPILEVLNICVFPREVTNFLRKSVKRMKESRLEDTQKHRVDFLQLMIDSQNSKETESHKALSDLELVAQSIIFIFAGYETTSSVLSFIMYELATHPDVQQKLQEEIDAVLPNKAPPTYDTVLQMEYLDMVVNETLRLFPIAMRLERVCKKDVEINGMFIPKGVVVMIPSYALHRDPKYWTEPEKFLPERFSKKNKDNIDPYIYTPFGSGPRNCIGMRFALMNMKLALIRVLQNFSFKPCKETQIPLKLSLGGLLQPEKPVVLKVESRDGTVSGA
# Cytochrome P450 2C9 = Cytochrome P450 2C9 (Homo sapiens, UniProt P11712)
# Cytochrome P450 2C9, sequence (P11712 whole entry): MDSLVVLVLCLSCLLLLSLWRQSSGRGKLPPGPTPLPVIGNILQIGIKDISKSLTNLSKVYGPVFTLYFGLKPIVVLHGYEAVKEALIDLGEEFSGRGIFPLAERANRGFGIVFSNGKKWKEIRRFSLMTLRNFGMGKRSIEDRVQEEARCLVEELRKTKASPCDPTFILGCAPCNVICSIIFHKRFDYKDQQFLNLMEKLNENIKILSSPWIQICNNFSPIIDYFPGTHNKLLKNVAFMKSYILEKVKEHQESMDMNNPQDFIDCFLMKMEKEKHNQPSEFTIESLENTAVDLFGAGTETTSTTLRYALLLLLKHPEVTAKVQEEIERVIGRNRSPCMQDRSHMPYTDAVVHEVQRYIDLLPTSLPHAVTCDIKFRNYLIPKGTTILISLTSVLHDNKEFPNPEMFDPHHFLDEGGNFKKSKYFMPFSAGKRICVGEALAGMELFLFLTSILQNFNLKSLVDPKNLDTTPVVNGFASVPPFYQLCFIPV
# [6] = loss of viability in HepG2 cells – cell-based, CellTiter-Glo, cherry-picked, cytotoxicity control for Shn3 inhibitor project, dose response (AID 624134); format: functional
# Beta-lactamase [7] = target: Beta-lactamase (Salmonella choleraesuis (strain SC-B67), UniProt Q5J463); assay: Epi-absorbance-based counterscreen for selective VIM-2 inhibitors: dose response biochemical high throughput screening assay to identify inhibitors of TEM-1 serine-beta-lactamase.
# Beta-lactamase (Salmonella choleraesuis (strain SC-B67), UniProt Q5J463), sequence (Q5J463 whole entry): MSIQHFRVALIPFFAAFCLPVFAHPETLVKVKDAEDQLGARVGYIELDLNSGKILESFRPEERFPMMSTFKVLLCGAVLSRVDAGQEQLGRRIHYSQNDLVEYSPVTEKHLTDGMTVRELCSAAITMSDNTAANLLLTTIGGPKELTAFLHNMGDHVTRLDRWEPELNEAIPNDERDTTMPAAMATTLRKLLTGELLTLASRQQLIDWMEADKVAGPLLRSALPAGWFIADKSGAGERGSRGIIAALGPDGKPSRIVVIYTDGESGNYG
# Beta-lactamase [8] = target: T2, Beta-lactamase (Pseudomonas aeruginosa, UniProt Q79MP6); assay: inhibition of IMP-1 beta-lactamase activity – biochemical, epi-absorbance, selectivity assay for VIM-2 inhibitor project, dose response (AID 1920)
# T2 sequence (Q79MP6 whole entry): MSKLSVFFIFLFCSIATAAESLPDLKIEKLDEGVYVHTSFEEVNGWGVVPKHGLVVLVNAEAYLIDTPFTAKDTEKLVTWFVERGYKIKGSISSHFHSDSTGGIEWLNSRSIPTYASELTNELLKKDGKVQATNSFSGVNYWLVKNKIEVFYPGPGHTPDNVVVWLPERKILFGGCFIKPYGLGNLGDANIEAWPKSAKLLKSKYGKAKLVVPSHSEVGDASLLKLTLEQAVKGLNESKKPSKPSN
# Beta-lactamase [9] = target: T2, Beta-lactamase; assay: […] counterscreen for selective VIM-2 inhibitors: dose response biochemical high throughput screening assay to identify inhibitors of IMP-1 metallo-beta-lactamase.
# [10] = target: Induced myeloid leukemia cell differentiation protein Mcl-1 (Homo sapiens, UniProt Q07820); format: functional
# Induced myeloid leukemia cell differentiation protein Mcl-1, sequence (Q07820 whole entry): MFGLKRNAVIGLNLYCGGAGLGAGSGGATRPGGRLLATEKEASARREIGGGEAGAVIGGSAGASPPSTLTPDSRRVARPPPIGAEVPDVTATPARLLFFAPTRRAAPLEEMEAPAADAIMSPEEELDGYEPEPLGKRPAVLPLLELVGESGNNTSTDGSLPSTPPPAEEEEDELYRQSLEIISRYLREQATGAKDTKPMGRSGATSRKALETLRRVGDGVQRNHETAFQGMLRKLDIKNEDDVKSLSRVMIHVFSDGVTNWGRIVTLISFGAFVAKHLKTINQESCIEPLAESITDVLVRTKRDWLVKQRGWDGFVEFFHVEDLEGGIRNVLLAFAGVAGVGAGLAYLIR
# [11] = target: T3, Probable nicotinate-nucleotide adenylyltransferase (Staphylococcus aureus (strain N315), UniProt P65502); format: functional, Staphylococcus aureus subsp. aureus N315;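 as to IC50 Mean: confirmatory dose-response retesting of NadD inhibitor hits first found in an ultra-high-throughput screen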
# T3 sequence (P65502 whole entry): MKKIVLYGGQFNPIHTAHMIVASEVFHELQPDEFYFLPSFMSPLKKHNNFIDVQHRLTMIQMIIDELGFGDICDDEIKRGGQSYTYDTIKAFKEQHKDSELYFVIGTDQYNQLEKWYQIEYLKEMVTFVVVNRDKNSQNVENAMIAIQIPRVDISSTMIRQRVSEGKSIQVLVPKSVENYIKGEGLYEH
# [12] = target: T3, Probable nicotinate-nucleotide adenylyltransferase; format: functional, Staphylococcus aureus subsp. aureus N315; details: read-out: IC50_Mean
# Caspase-3 = target: T4, Caspase-3 (Homo sapiens, UniProt P42574); format: functional;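 also: Dose-response selectivity test against caspase-3 for candidate inhibitors of sentrin-specific proteases (SENPs)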
# T4 sequence (P42574 whole entry): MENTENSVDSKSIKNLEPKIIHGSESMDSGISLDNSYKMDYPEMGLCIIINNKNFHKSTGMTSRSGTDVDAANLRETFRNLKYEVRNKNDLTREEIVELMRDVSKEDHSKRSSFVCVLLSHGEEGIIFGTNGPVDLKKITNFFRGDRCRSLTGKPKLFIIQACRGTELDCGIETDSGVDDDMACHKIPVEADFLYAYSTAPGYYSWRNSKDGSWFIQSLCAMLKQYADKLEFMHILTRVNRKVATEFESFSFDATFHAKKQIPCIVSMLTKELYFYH
# [13] = target: T5, Sentrin-specific protease 7 (Homo sapiens, UniProt Q9BQF6); format: functional;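 also: Luminescence-based dose-response confirmation of ultra-high-throughput screening hits, measuring inhibition of SENP7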
# T5 sequence (Q9BQF6 whole entry): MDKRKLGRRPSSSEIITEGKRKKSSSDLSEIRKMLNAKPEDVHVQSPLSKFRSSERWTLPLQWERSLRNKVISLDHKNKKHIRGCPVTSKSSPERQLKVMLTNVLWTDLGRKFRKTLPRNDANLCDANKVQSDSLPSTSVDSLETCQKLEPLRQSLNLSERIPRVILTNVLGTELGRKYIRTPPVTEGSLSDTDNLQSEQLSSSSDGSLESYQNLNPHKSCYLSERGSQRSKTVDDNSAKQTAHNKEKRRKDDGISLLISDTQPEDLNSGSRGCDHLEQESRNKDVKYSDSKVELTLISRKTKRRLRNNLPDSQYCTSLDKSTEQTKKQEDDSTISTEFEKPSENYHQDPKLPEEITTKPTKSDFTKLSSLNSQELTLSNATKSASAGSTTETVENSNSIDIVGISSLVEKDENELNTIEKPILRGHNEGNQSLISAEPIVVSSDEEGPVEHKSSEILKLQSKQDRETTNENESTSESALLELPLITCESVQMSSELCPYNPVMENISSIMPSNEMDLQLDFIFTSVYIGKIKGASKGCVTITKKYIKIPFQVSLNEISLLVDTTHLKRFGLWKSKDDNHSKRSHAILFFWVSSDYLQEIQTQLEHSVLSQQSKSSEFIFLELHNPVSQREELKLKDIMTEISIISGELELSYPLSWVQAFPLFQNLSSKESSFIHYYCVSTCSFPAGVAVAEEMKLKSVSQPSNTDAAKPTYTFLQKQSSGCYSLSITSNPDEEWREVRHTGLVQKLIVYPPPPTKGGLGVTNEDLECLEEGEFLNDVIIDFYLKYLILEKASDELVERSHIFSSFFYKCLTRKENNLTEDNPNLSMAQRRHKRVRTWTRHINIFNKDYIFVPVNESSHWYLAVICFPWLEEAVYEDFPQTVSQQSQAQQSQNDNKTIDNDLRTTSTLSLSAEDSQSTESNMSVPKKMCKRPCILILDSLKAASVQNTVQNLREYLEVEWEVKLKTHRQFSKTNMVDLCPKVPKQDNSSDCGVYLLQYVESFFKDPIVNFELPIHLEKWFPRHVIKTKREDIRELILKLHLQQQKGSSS
# [14] = target: T6, Sentrin-specific protease 6 (Homo sapiens, UniProt Q9GZR1); format: functional;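 also: Luminescence-based dose-response confirmatory assay of SENP6 inhibition, following up an ultra-high-throughput screen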
# T6 sequence (Q9GZR1 whole entry): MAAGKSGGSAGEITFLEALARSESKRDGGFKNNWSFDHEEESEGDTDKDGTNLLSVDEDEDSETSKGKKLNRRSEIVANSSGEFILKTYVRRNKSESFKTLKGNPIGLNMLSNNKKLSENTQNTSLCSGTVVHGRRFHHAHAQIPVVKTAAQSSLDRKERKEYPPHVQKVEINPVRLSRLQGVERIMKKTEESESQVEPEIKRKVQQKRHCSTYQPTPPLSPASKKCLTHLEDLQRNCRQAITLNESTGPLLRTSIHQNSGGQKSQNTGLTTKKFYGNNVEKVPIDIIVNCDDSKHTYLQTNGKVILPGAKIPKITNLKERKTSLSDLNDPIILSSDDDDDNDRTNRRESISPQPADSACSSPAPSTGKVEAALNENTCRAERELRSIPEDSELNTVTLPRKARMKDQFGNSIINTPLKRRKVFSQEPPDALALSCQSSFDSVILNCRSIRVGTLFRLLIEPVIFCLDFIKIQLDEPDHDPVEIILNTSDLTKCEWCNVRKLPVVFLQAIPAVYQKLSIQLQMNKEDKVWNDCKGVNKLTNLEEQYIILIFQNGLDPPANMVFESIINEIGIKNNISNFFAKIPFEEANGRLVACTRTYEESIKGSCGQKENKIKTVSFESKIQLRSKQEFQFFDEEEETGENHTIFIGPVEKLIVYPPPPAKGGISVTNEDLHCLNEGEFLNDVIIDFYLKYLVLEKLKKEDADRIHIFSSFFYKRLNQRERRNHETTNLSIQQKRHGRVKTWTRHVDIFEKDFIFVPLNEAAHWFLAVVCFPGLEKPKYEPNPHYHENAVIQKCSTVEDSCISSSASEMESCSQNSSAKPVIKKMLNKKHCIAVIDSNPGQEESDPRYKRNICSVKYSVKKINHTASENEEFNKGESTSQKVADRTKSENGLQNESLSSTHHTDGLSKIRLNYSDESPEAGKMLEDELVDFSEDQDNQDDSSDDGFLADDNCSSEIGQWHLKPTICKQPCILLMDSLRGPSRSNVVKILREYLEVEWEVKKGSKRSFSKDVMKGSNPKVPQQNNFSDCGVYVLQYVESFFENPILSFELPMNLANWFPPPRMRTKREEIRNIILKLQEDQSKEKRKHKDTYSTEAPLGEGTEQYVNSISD
# [15] = target: T7, Sentrin-specific protease 8 (Homo sapiens, UniProt Q96LD8); format: functional;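 also: luminescence read-out of SENP8 inhibition, dose-response confirmation following an ultra-high-throughput screen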
# T7 sequence (Q96LD8 whole entry): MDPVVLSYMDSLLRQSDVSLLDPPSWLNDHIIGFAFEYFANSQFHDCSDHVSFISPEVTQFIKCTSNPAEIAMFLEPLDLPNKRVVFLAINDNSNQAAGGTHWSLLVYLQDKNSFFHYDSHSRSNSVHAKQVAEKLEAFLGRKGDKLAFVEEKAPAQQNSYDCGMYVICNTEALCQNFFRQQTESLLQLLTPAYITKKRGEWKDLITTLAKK
# [16] = target: Protein-tyrosine kinase 2-beta (Homo sapiens, UniProt Q14289);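 also: potency of inhibitors of PYK2 kinase phosphorylation of poly-GT substrate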
# Protein-tyrosine kinase 2-beta, sequence (Q14289 whole entry): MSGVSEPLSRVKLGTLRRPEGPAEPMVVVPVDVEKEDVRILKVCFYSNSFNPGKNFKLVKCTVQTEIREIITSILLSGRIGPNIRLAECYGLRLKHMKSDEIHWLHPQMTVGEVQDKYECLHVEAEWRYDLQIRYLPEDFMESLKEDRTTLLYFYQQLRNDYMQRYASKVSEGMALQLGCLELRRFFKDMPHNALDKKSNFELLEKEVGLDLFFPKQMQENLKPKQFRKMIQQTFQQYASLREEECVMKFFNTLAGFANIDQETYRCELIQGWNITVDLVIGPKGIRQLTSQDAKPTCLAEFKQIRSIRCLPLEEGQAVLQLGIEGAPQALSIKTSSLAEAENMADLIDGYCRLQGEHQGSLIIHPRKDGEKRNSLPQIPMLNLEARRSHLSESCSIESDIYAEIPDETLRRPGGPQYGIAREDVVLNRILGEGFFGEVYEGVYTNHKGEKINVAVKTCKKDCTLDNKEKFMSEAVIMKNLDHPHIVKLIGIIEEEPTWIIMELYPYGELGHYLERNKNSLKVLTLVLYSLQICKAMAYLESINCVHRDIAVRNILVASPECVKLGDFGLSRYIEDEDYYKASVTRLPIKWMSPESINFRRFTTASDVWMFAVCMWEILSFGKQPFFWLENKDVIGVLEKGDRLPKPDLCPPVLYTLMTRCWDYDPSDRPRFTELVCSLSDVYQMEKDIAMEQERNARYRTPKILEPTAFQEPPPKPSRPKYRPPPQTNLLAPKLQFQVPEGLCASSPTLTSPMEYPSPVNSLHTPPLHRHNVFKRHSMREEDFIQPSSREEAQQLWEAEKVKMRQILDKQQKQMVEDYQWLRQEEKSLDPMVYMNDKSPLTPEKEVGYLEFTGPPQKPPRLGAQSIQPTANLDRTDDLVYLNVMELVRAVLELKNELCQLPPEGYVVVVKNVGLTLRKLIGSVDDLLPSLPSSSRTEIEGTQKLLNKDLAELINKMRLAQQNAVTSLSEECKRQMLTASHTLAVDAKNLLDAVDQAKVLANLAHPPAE
# [17] = viability of uninfected HEp-2 cells – cell-based, HTS, cytotoxicity control for RSV inhibitor project, dose response (AID 2410); format: functional; details: human respiratory syncytial virus
smiles,measurement,setting,value
O=C(Nc1ccc2c(c1)[C@H]1C[C@@H](CC(=O)N3CCc4ccccc4C3)O[C@H](CO)[C@H]1O2)c1cccnc1,AC50,[1],6.24 µM (active)
C=CCOc1nc2c(c(=O)n(C)c(=O)n2C)n1Cc1ccc(Cl)cc1Cl,AC50,[2],2.15 µM (active)
same,AC50,[3],7.4 µM (active)
same,IC50,Protein Wnt-3a,29.7 µM (inactive)
Cc1cc(/C=C2\SC(=S)NC2=O)c(C)n1C,AC50,Cytochrome P450 2C19,39.8 µM (inconclusive)
same,IC50,[4],16.5 µM (active)
same,IC50,[5],15.2 µM (active)
same,IC50,Prothrombin,19.4 µM (active)
same,AC50,Cytochrome P450 3A4,25.1 µM (inconclusive)
same,AC50,Cytochrome P450 2C9,1.26 µM (inconclusive)
CCc1nc(N)nc(N)c1-c1ccc(N(C)Cc2ccccc2)c([N+](=O)[O-])c1,AC50,[2],< 0.26 µM (active)
same,AC50,[6],< 0.26 µM (active)
same,IC50,Protein Wnt-3a,5.28 µM (active)
S=c1[nH]nc(-c2ccccc2)n1CC1CCCO1 (centres undefined),IC50,Beta-lactamase [7],> 59.6 µM (inactive)
same,IC50,Beta-lactamase [8],> 59.6 µM (inactive)
same,IC50,Beta-lactamase [9],> 59.6 µM (inactive)
CCOC(=O)c1c(NC(=O)COc2ncnc3ccccc23)sc(C(C)=O)c1C,IC50,Protein Wnt-3a,6.86 µM (active)
CC1=CC2=NC(=O)/C(=C\c3c(C)[nH]c4ccc(C)cc34)C(=N)N2O1,IC50,[4],33.3 µM (active)
same,IC50,[5],> 100 µM (inactive)
same,IC50,Prothrombin,32.1 µM (active)
O=C(C[C@@H]1C[C@@H]2c3cc(NC(=O)c4cccnc4)ccc3O[C@@H]2[C@@H](CO)O1)NCc1cccc(F)c1,AC50,[1],5.98 µM (active)
COc1ccc(C2=NN(c3nc(-c4ccccc4)c(CC(=O)O)s3)C(c3ccco3)C2)cc1 (centres undefined),IC50,[10],6.5 µM (active)
same,IC50,[11],8.39 µM (active)
same,IC50,[12],18.5 µM (active)
O=C(c1ccc2c(=O)n(Cc3ccco3)c(=S)[nH]c2c1)N1CCN(Cc2ccccc2)CC1,IC50,[11],23.5 µM (active)
same,IC50,[12],57.7 µM (active)
CCOC(=O)c1ccc(NC(=O)c2cc3ccccc3o2)cc1,IC50,Caspase-3,23.7 µM (active)
same,IC50,[13],5.71 µM (active)
same,IC50,[14],7.74 µM (active)
same,IC50,[15],> 100 µM (inactive)
Cc1cccc(C(=O)NC2CCN(CC(=O)Nc3ccccc3Cl)CC2)c1,AC50,[1],1.04 µM (active)
C=C(c1cccc2ccccc12)P(=O)(O)O,IC50,Beta-lactamase [7],> 59.6 µM (inactive)
same,IC50,Beta-lactamase [8],> 59.6 µM (inactive)
same,IC50,Beta-lactamase [9],> 59.6 µM (inactive)
same,IC50,[16],27 µM (not active)
Cc1ccc(NC(=O)C(C)SCc2nc(O)c3c4c(sc3n2)CCCC4)nc1 (centres undefined),IC50,[4],21.9 µM (active)
same,IC50,[5],> 100 µM (inactive)
same,IC50,Prothrombin,17.2 µM (active)
Cc1ccc([N+](=O)[O-])cc1S(=O)(=O)Nc1cccc(-c2ccc(N3CCCC3)nn2)c1,CC50,[17],23 µM (active)
same,IC50,[11],17.7 µM (active)
same,IC50,[12],39.2 µM (active)
CSC[C@H](NC(=O)COc1cc2c(c3oc(=O)c(C)c(C)c13)CCC(C)(C)O2)C(=O)O,IC50,Beta-lactamase [7],> 59.6 µM (inactive)
same,IC50,Beta-lactamase [8],> 59.6 µM (inactive)
same,IC50,Beta-lactamase [9],> 59.6 µM (inactive)
